“And” between values parts separate entries of the source, which are not always exact repeats. Equal values may be shown once.
What was measured:
Assay type in all cases: in vivo
[1] = test system: Diabetic mice (strain C 57, black, MRI derived Obese/Obese); assay: Hypoglycaemic Activity in Diabetic Mice (oral, 3 days); conditions: for change in vivo at 30 mg/kg: 30 mg/kg body weight per day; for change in vivo at 100 mg/kg: 100 mg/kg body weight per day; for change in vivo at 200 mg/kg / change in blood glucose compared with control: 200 mg/kg body weight per day
Experimental: Diabetic mice (strain C 57, black, MRI derived Obese/Obese) of either sex each weighing between 45 and 70 g were given the test compound orally in tragacanth mucilage at a dose of 5,10,30,100,200 or 500 mg/kg body weight per day for 3 days. Three hours after the last dose the animals were killed with carbon dioxide and bled by cardiac puncture. The blood glucose levels were assessed by the glucose-oxidase method of GOD-Perid. Control groups (given doses of unmedicated tragacanth mucilage) were included with each test. The percentage reduction in the concentration of blood glucose was calculated by comparison with the simultaneous controls, for each of the test compounds used.

Male Wistar rats = assay: Hypolipidaemic Activity in Rats; conditions: oral, last 3 days of 10-day cholesterol/cholic acid diet
Experimental: Male Wistar rats each weighing between 120 and 150 g were caged in groups of eight and fed a pelleted diet incorporating 0.5% w/w cholesterol and 0.25% w/w cholic acid for 10 days. For the last 3 days of that period the test compound was administered orally at a dose of 30, 100 or 200 mg/kg body weight per day in tragacanth mucilage.
At noon on day 10 the animals were killed by inhalation of carbon dioxide from solid carbon dioxide. A sample of blood was removed by cardiac puncture and the serum cholesterol and serum triglycerides were analysed by means of an auto-analyser.
Control group (receiving only doses of unmedicated tragacanth mucilage) were included with each test.
The percentage reductions in the concentrations of serum cholesterol and serum triglycerides were calculated by comparison with the simultaneous controls, for each concentration of the test compound used.

[2] = test system: Diabetic mice (strain C 57, black, MRI derived Obese/Obese); assay: Hypoglycaemic Activity in Diabetic Mice (oral, 8 days, W hydrochloride); conditions: male diabetic mice
Experimental: Groups of diabetic mice (strain C 57, black, MRI derived Obese/Obese) of male sex of mean weight between 43 and 46 g were given the test compound W hydrochloride orally in tragacanth mucilage at a dose of 2, 5 or 100 mg/kg body weight per day for 8 days. Three hours after the last dose the animals were bled from the tail vein. The blood glucose levels were assessed by the glucose-oxidase method of GOD-Perid. Control groups (given doses of unmedicated tragacanth mucilage) were included with each test. The percentage reduction in the concentration of blood glucose was calculated by comparison with the simultaneous controls.

Rats (Sprague-Dawley) = assay: Hypoglycaemic Activity in Fasted Rats; conditions: 100 mg/kg body weight per day, oral, 4 days, fasted male Sprague-Dawley rats
Experimental: Rats (Sprague-Dawley) of male sex each weighing between 171 and 174 g were given the test compound W hydrochloride orally in tragacanth mucilage at a dose of 100 mg/kg body weight per day for 4 days. Four hours after the third dose the animals were kept without food up to and beyond the fourth dose. Three hours after the last dose the animals were bled from the tail vein. The blood glucose levels were assessed by the glucose-oxidase method of GOD-Perid. Control groups (given doses of unmedicated tragacanth mucilage) were included with each test. The percentage reduction in the concentration of blood glucose was calculated by comparison with the simultaneous controls.

[3] = Mus musculus, po, 72 h, read-out: change in blood glucose compared with control

O=C(NCCCn1ccnc1)c1ccccc1NS(=O)(=O)c1ccc(Cl)cc1 [A, 2-(4-chlorobenzenesulphonamido)-N-(3-imidazol-1-ylpropyl)benzamide]
change in vivo at 30 mg/kg [1, 3]: -13% | change in vivo at 100 mg/kg [1, 3]: -49% | % change in serum cholesterol compared with control (Male Wistar rats; 30 mg/kg body weight per day): -13% | % change in serum triglycerides compared with control (Male Wistar rats; 30 mg/kg body weight per day): +67% | % change in serum cholesterol compared with control (Male Wistar rats; 100 mg/kg body weight per day): -35% | % change in serum triglycerides compared with control (Male Wistar rats; 100 mg/kg body weight per day): +36% | % change in serum cholesterol compared with control (Male Wistar rats; 200 mg/kg body weight per day): -82% and -83%

Cc1cn(CCCNC(=O)c2ccccc2NS(=O)(=O)c2ccc(Cl)cc2)cn1 [N, 2-(4-chlorobenzenesulphonamido)-N-[3-(4-methylimidazol-1-yl)propyl]benzamide]
change in vivo at 200 mg/kg [1, 3]: -48%

O=C(NCCCn1ccnc1)c1ccccc1NS(=O)(=O)c1ccccc1 [E, 2-(benzenesulphonamido)-N-(3-imidazol-1-ylpropyl)benzamide]
% change in serum cholesterol compared with control (Male Wistar rats; 200 mg/kg body weight per day): -31% | % change in serum triglycerides compared with control (Male Wistar rats; 200 mg/kg body weight per day): +55%

O=C(NCCCn1ccnc1)c1ccccc1NS(=O)(=O)c1cccc(C(F)(F)F)c1 [W, 2-(3-trifluoromethylbenzenesulphonamido)-N-(3-imidazol-1-ylpropyl)benzamide]
change in blood glucose compared with control [1]: -68%

O=C(NCCCn1ccnc1)c1cc(Cl)ccc1NS(=O)(=O)c1ccc(Cl)cc1 [I, 5-chloro-2-(4-chlorobenzenesulphonamido)-N-(3-imidazol-1-ylpropyl)benzamide]
change in vivo at 200 mg/kg [1, 3]: -57%

CC(CCNC(=O)c1ccccc1NS(=O)(=O)c1ccc(Cl)cc1)n1ccnc1 (racemic) [WW, (±)-2-(4-chlorobenzenesulphonamido)-N-(3-imidazol-1-ylbutyl)benzamide]
change in vivo at 200 mg/kg [1, 3]: -24%

O=C(NCCCn1ccnc1)c1ccccc1NS(=O)(=O)c1ccc(Cl)cc1Cl [Y, 2-(2,4-dichlorobenzenesulphonamido)-N-(3-imidazol-1-ylpropyl)benzamide]
change in vivo at 200 mg/kg [1, 3]: -51%

Cc1ccc(S(=O)(=O)Nc2ccccc2C(=O)NCCCn2ccnc2)cc1C [G, 2-(3,4-dimethylbenzenesulphonamido)-N-(3-imidazol-1-ylpropyl)benzamide]
change in vivo at 200 mg/kg [1, 3]: -25%

O=C(NCCCn1ccnc1)c1ccccc1NS(=O)(=O)c1ccc(Br)cc1 [D, 2-(4-bromobenzenesulphonamido)-N-(3-imidazol-1-ylpropyl)benzamide]
% change in serum cholesterol compared with control (Male Wistar rats; 200 mg/kg body weight per day): -63% | % change in serum triglycerides compared with control (Male Wistar rats; 200 mg/kg body weight per day): -59%

Cl.O=C(NCCCn1ccnc1)c1ccccc1NS(=O)(=O)c1cccc(C(F)(F)F)c1 [W hydrochloride, 2-(3-trifluoromethylbenzenesulphonamido)-N-(3-imidazol-1-ylpropyl)benzamide hydrochloride]
change in blood glucose compared with control [1]: -62% | change in vivo at 5 mg/kg ([1]; Mus musculus, po, 72 h, 5 mg/kg body weight per day, read-out: change in blood glucose compared with control): -25% | change in vivo at 10 mg/kg ([1]; Mus musculus, po, 72 h, 10 mg/kg body weight per day, read-out: change in blood glucose compared with control): -29% | change in vivo at 30 mg/kg [1, 3]: -58% | change in vivo at 100 mg/kg [1, 3]: -50% | change in vivo at 500 mg/kg ([1]; Mus musculus, po, 72 h, 500 mg/kg body weight per day, read-out: change in blood glucose compared with control): -46% | % change in blood glucose compared with control ([2]; 2 mg/kg body weight per day): -25% | % change in blood glucose compared with control ([2]; 5 mg/kg body weight per day): -28% | % change in blood glucose compared with control ([2]; 100 mg/kg body weight per day): -50% | % change in blood glucose compared with control (Rats (Sprague-Dawley)): -26%

O=C(NCCCn1ccnc1)c1ccccc1NS(=O)(=O)c1ccc(Cl)c(Cl)c1 [X, 2-(3,4-dichlorobenzenesulphonamido)-N-(3-imidazol-1-ylpropyl)benzamide]
change in vivo at 200 mg/kg [1, 3]: -58%

O=C(NCCCn1ccnc1)c1ccccc1NS(=O)(=O)c1cccc(Cl)c1 [B, 2-(3-chlorobenzenesulphonamido)-N-(3-imidazol-1-ylpropyl)benzamide]
change in vivo at 200 mg/kg [1, 3]: -60%

Cc1ccccc1S(=O)(=O)Nc1ccccc1C(=O)NCCCn1ccnc1 [QQ, 2-(2-methylbenzenesulphonamido)-N-(3-imidazol-1-ylpropyl)benzamide]
change in vivo at 200 mg/kg [1, 3]: -43%

O=C(NCCCn1ccnc1)c1ccccc1NS(=O)(=O)c1cc(Cl)ccc1Cl [J, 2-(2,5-dichlorobenzenesulphonamido)-N-(3-imidazol-1-ylpropyl)benzamide]
change in vivo at 200 mg/kg [1, 3]: -42%

O=C(NCCCn1ccnc1)c1ccccc1NS(=O)(=O)c1ccc(F)cc1F [OO, 2-(2,4-difluorobenzenesulphonamido)-N-(3-imidazol-1-ylpropyl)benzamide]
change in vivo at 200 mg/kg [1, 3]: -35%

O=C(NCCn1ccnc1)c1ccccc1NS(=O)(=O)c1ccc(Cl)cc1 [VV, 2-(4-chlorobenzenesulphonamido)-N-(2-imidazol-1-ylethyl)benzamide]
change in vivo at 200 mg/kg [1, 3]: -53%

Cc1ccc(S(=O)(=O)Nc2ccccc2C(=O)NCCCn2ccnc2)cc1 [F, 2-(4-methylbenzenesulphonamido)-N-(3-imidazol-1-yl-propyl)benzamide]
change in vivo at 200 mg/kg [1, 3]: -32% | % change in serum cholesterol compared with control (Male Wistar rats; 200 mg/kg body weight per day): -72% | % change in serum triglycerides compared with control (Male Wistar rats; 200 mg/kg body weight per day): -60%
